Assays:
[1] = tested on: Rattus norvegicus; conditions: acute; oral; mortality
[2] = tested on: Bird; conditions: oral, mortality; for LD50: acute, unspecified; for LC50: short-term, feed

SMILES	LD50 [1] [mg/kg]	LD50 [2] [mg/kg]	LC50 [2] [mg/kg]
C/C=C/C=C/CCCCCCCO [(8E,10E)-8,10-Dodecadien-1-ol]	> 5000	> 2050	–
CCC=CC=CCCCCCCOC(C)=O (stereo in doubt) [(7Z,9E)-Dodeca-7,9-dienyl acetate]	> 5000	–	–
CC/C=C\CCCCCCCCOC(C)=O [(Z)-Dodec-9-enyl acetate]	> 5000	–	–
CCC/C=C/CCCCCCCOC(C)=O [(E)-Dodec-8-enyl acetate]	> 5000	–	–
CC/C=C\CCCCCCCCCCOC(C)=O [(Z)-Tetradec-11-enyl acetate]	> 5000	–	–
CCCC/C=C/CC/C=C\CCCCCCOC(C)=O [Hexadeca-7,11-dien-1-yl acetate (Z,E)-]	> 5000	> 2250	> 5620
CCCC/C=C\CCCCCCCCCC=O [(Z)-11-Hexadecenal]	> 5000	> 2250	> 5620
CCCC/C=C\CCCCCCCCOC(C)=O [(Z)-9-Tetradecenyl acetate]	> 5000	–	–

— EPA's ToxValDB 9.5 (doi:10.2903/j.efsa.2014.3524)
